This note sets out measurements from patent publication US10603319B2, “Pyrimidine derivatives and their use in treating or preventing a respiratory syncytial virus infection” (REVIRAL LIMITED, priority 2016, dated 2020).

Where two headings read alike, the source gives them in different places.

What all share (type): cell-based
One assay deals with T1, RSV A2_F (Human respiratory syncytial virus A, UniProt P03420).
T1 construct: expressed in transfected cells; host or cells: HEK 293T/17
Description: RSV fusion assay (luciferase reporter, HEK 293T/17 cells transfected with A2_F). Particulars: Fusion activity IC50 μM, HEK 293T/17 cells, 24 hr. The protocol:
HEK 293T/17 cells were cultured in T75 culture flasks in Dulbecco's medium (DMEM) containing 10% FBS and 1× Penicillin-Streptomycin (Pen/Strep) and warmed to 37° C. prior to use. The cells were passaged by first washing briefly with 3 ml phosphate buffered saline (PBS) followed by a 4 min incubation with […] at 37° C. 7 ml media was then added to the flask and the cells dispersed via pipetting (×3) against the bottom of the flask. Two further T75 flasks were each seeded with 2×10^6 cells in 15 ml fresh media.
Cells were seeded on the T75 plates at the same density as on the 6-well plates the area of a T75 flask and one 1.75 cm radius well from a 6-well plate were compared. 7.79×2 ml of 3×10^5 cells ml^−1 was used to seed a single T75 flask.
HEK cells were removed from a T75 flask as described above. The cells were counted and diluted to 3×10^5 cells/ml in fresh media. Two T75 flasks were each seeded with 15.58 ml diluted cells.
The plasmid DNA (for pFR-Luc and pcDNA3.1_Gal4/NFκB) to be transfected into the HEK cells was first prepared in serum free media (DMEM+Pen/Strep) containing the transfection reagent Fugene 6 (Promega). Transfections were set up as follows (Luc=pFR_Luc, Gal4=pcDNA3.1+_Gal4/NFκB, A2_F=pcDNA3.1+_A2_F)
Serum free media was placed in a 1.5 ml eppendorf tube then the fugene 6 was added into the media. The tube was vortexed for 1 s before being incubated at RT for 5 min. The plasmid DNA was then added to the tube, vortexed for 1 s, then incubated at RT for 15 min
The transfection reagents were then added to the appropriate T75 flask by tipping the flask on end and adding the reagents directly to the media already in the flask. The flask was then tipped on its back so the media could be mixed thoroughly whilst not disturbing the cells before placing the flask the right way up and incubating overnight at 37° C. and 5% CO2.
Compounds were diluted (in a polypropylene round-bottomed 96 well plate) 1:3 in a twelve point dilution curve to give top [final] of either 3.3 μM, 1 μM, 500 nM 200 nM or 100 nM. The Control compound was always run at a concentration of 100 nM.
The cells were then counted and diluted to 4×10^5 cells/ml in fresh media. 50 μl of transfection population 1 cells were added to all wells of the assay plates. 100 μl diluted compound (2 rows per compound), standard curve (one row) and controls (100 nM RV (100% inhibition, four wells), DMSO (0% inhibition, eight wells)) were added to the appropriate wells. 50 μl of the diluted (4×10^5 cells/ml) transfection population 2 cells when then added to all wells.
The plates were then incubated for 24 hr at 37° C. and 5% CO2
Buffers were prepared for the luciferase assay (20 mM tricine, 10 mM MgSO4, 1 mM EDTA, 10 mM DTT) and lysis (25 mM tris-phosphate, 8 mM MgCl2, 1 mM DTT, 1% Triton X-100, 15% glycerol) and stored at −20° C.
Luminescence was measured as described:
Media was discarded into Virkon and the plates washed with 100 ul PBS per well. 20 ul/well of lysis buffer was added to each well and incubated shaking for 5 min at RT. Luciferin was added to LAAB at a dilution of 1:50 to give a working luciferin buffer. 100 μl working luciferin buffer was added to each well and luminescence was measured immediately. […]
In general terms: A reporter such as luciferase makes a cellular process visible.

In a further assay the test system is RSV A2. The assay can be described thus: Plaque Reduction Assay 1 (Vero cells, immunostaining). Particulars: two replicate values, read-out: RSV Plaque Reduction assays A2 (PRNT1) (n = 2) IC50. The protocol:
Plaque Reduction Assay 1: Vero cells were seeded in 96-well plates in a volume of 100 μL of Optimem supplemented with 3% FCS at a concentration of 4×10^4 cells per well. After an overnight incubation at 37° C. in a humidified 5% CO2 atmosphere, the monolayer of cells should be approximately 90% confluent. Antiviral compounds were titrated in pre-warmed Serum Free (SF) Optimem in a U-bottom 96 well plate. For compounds in a DMSO solution, titration in 100% DMSO was performed first and each concentration added individually to a 2× final concentration at 4% DMSO in SF media before mixing with virus (2% final DMSO with virus). Media was then removed from cells and replaced with PBS (100 μl/well). RSV stock was thawed and diluted in SF Optimem media to 4000 PFU/mLl. An equal volume of virus was added to compounds on the titration plate. PBS was removed from cells which were then inoculated with the virus/compound solution (50 μL/well). Cells were incubated for 2 h in a 37° C.+5% CO2 humidified incubator to allow infection. Inoculum was removed and media (Optimem+1% FCS) added to cells (100 μl/well). Cells were subsequently incubated for 48 h at 37° C.+5% CO2 in a humidified incubator. Immunostaining Procedure: Media was removed from cells and the monolayer washed with PBS. Cells were fixed with ice cold 80% Acetone in PBS (100 μl/well) for 20 mins at −20° C. Fixative was removed and cells are dried for 30 mins with plates inverted. Blocking solution (5% skim milk powder in PBS-T) was added to cells (150 μL/well) and plates were incubated for 30 mins at room temperature. Blocking solution was removed and plates washed once with PBS-T. Primary antibody in blocking solution was added to plates (50 μl/well) and incubated for 1 h at 37° C. Plates were then washed 3 times with PBS-T. Secondary antibody in blocking solution was added to plates ([…]) and incubated for 1 h at 37° C. in the dark. Plates were washed as above and then dried for 10 mins. Plates were scanned on the Odyssey Imager (Li-Cor Biosciences) at a resolution of […], medium quality and level 5 intensity in the […]. Data Analysis: Images obtained were saved and plaque numbers counted with the aid of computer imaging software. EC50 values for compounds were derived from dose response curves [three variable log(inhibitor) vs response] obtained using Graphpad Prism software.
On the technique in general: Plaques are areas of infected cells; plaque reduction assays count them against a control.

The test system of a further assay is RSV A2 VR-1540. Description: Plaque Reduction Assay 2 (HEp-2 cells, virospot count). The settings on record: human respiratory syncytial virus, 24 h; RSV A2, HEp-2 cells, 1 day. From the text: Plaque Reduction Assay 2:
This RSV plaque reduction assay is an infectivity assay which allows quantification of the number of infectious units in a distinct foci of RSV infection. This is indicated by zones of viral antigen detected by specific antibody staining within a monolayer of otherwise healthy tissue culture cells. As each plaque originates from a single infectious virus particle an accurate calculation of the anti-viral effect can be obtained by counting plaques in the presence and absence of an anti-viral compound. HEp-2 cells (ATCC, CCL23) were passaged in flasks and seeded in 96-well plates in DMEM containing antibiotics and supplemented with 10% FBS. During inoculation and subsequent incubation, cells were cultured in DMEM containing 3% FBS. 100 plaque forming unit (PFU)/well of RSV (RSV A2 VR-1540) was mixed with ten serial dilutions of compound. Subsequently, 100 μL of the virus/compound mixtures was added to confluent HEp-2 cell monolayers. The cells and virus/compound mixtures were incubated at 35° C. in a humidified 5% CO2 incubator for 1 day.
Cells were washed twice with PBS before adding 50% v/v EtOH/MeOH, and then stored at −20° C. On the day of the staining, fixative was first removed from the plates. Plates were washed 3× with PBS. A pre-titrated amount of the primary antibody was added in 60 μL PBS/2% milk powder, and plates incubated for 1 h at rt. The plates were washed 3× with PBS/0.05% Tween20 before addition of goat anti-mouse horse radish peroxidase in 60 μL PBS/2% milk powder, and incubated for 1 h at rt. Following three wash steps with PBS/0.05% Tween20, 60 μL ready-to-use TrueBlue was added and plates were incubated at rt for 10-15 min before adding MilliQ water. Plates were washed once with water, incubated for 30-60 min and after removal of water, air-dried in the dark.
Plates were scanned and analyzed using the Immunospot S6 UV analyzer, which is equipped with BioSpot analysis software for counting immunostained plaques (virospots). Plaque counts were used to calculate % infection relative to the mean of the spot count (SC) in the virus control wells for RSV. IC50/IC90 values were calculated as 50% or 90% reduction in signal, respectively, by interpolation of inhibition curves fitted with a 4-parameter nonlinear regression with a variable slope in GraphPad 5.0 (Prism).

The mark [1] stands for this setting: human respiratory syncytial virus, Vero.

T1 sequence (P03420 137-574): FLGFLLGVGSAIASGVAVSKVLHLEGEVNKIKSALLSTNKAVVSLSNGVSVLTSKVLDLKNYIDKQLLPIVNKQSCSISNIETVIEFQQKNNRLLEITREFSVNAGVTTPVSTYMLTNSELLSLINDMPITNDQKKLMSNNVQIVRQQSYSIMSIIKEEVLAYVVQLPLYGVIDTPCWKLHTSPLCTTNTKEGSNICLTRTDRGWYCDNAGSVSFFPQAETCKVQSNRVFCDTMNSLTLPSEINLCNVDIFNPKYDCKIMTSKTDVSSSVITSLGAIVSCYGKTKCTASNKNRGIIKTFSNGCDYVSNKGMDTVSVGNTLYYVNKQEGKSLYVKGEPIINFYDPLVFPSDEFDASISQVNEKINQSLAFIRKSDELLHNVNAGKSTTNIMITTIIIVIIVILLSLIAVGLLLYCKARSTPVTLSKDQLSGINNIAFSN
T1 sequence (P03420 26-109): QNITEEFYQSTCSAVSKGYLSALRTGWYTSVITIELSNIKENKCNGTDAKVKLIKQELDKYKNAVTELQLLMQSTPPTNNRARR

Turning to `CC(C)CCNc1nc(N2CCC(N)C2)ncc1CN1C(=O)C2(CC2)c2ccc(F)cc21` (stereo not drawn) [Compound 1, 1′-((2-(3-Aminopyrrolidin-1-yl)-4-(isopentylamino)pyrimidin-5-yl)methyl)-6′-fluorospiro[cyclopropane-1,3′-indolin]-2′-one], the IC50 was determined as 0.708 µM against RSV A2_F, 619 nM with RSV A2 (setting [1]) and 316 nM in the assay on RSV A2.

As for `NC1CCN(c2ncc(CN3C(=O)C4(CC4)c4ccc(F)cc43)c(NCCCCO)n2)C1` (stereo not drawn) [Compound 4, 1′-((2-(3-Aminopyrrolidin-1-yl)-4-((4-hydroxybutyl)amino)pyrimidin-5-yl)methyl)-6′-fluorospiro[cyclopropane-1,3′-indolin]-2′-one], the IC50 is 0.452 µM on RSV A2_F, 43 nM in the assay on RSV A2 VR-1540, 5.48 nM in the assay on RSV A2 (setting [1]) and 9.3 nM in the assay on RSV A2.

Turning to `CC(C)CNc1nc(N2CCC(N)C2)ncc1CN1C(=O)C2(CC2)c2ccc(F)cc21` (stereo not drawn) [Compound 5, 1′-((2-(3-Aminopyrrolidin-1-yl)-4-(isobutylamino)pyrimidin-5-yl)methyl)-6′-fluorospiro[cyclopropane-1,3′-indolin]-2′-one], the concentration for half-maximal inhibition (IC50) against RSV A2_F worked out at 0.655 µM; in the assay on RSV A2 VR-1540, 998 nM; in the assay on RSV A2 (setting [1]), 165 nM; with RSV A2, 215 nM.

`NC1CCN(c2ncc(CN3C(=O)C4(CCC4)c4ccc(F)cc43)c(N[C@H]3CC[C@H](O)CC3)n2)C1` (stereo partly drawn) [Compound 20, 1′-{[2-(3-Aminopyrrolidin-1-yl)-4-[(4-hydroxycyclohexyl)amino]pyrimidin-5-yl]methyl}-6′-fluoro-1′,2′-dihydrospiro[cyclobutane-1,3′-indole]-2′-one]: the IC50 was 1.95 µM against RSV A2_F and 116 nM in the assay on RSV A2 VR-1540.

On to `NCCNc1ncc(CN2C(=O)C3(CC3)c3ccc(F)cc32)c(NCCCCO)n1` [Compound 25, 1′-({2-[(2-Aminoethyl)amino]-4-[(4-hydroxybutyl)amino]pyrimidin-5-yl}methyl)-6′-fluoro-1′,2′-dihydrospiro[cyclopropane-1,3′-indole]-2′-one], for which the results for the IC50 against RSV A2_F and with RSV A2 VR-1540 were 0.212 µM and 49 nM, respectively.

For `NC1CCN(c2ncc(CN3C(=O)C4(CC4)c4ccc(F)cc43)c(NCCCO)n2)C1` (stereo not drawn) [Compound 27, 1′-{[2-(3-Aminopyrrolidin-1-yl)-4-[(3-hydroxypropyl)amino]pyrimidin-5-yl]methyl}-6′-fluoro-1′,2′-dihydrospiro[cyclopropane-1,3′-indole]-2′-one], the IC50 on RSV A2_F was 1.09 µM; in the assay with RSV A2 VR-1540, 34 nM.

As to `CCCNc1nc(N2CCC(N)C2)ncc1CN1C(=O)C2(CC2)c2ccc(F)cc21` (stereo not drawn) [Compound 28, 1′-{[2-(3-Aminopyrrolidin-1-yl)-4-(propylamino)pyrimidin-5-yl]methyl}-6′-fluoro-1′,2′-dihydrospiro[cyclopropane-1,3′-indole]-2′-one], the IC50 at RSV A2_F turned out to be 1.23 µM; in the assay with RSV A2 VR-1540, 63 nM.

As to `CCNc1nc(N2CCC(N)C2)ncc1CN1C(=O)C2(CC2)c2ccc(F)cc21` (stereo not drawn) [Compound 29, 1′-{[2-(3-Aminopyrrolidin-1-yl)-4-(ethylamino)pyrimidin-5-yl]methyl}-6′-fluoro-1′,2′-dihydrospiro[cyclopropane-1,3′-indole]-2′-one], the concentration for half-maximal inhibition (IC50) against RSV A2_F was 1.17 µM; with RSV A2 VR-1540, 740 nM.

As usually defined, the IC50 is the concentration at which inhibition is half-maximal.
